Test [1] concerns the target T1, purified LasB protein from P. aeruginosa (Pseudomonas aeruginosa, UniProt P14756).
T1 construct: purchased Merck or Charles River Laboratories
The test can be described thus: Fluorometric assay to determine Ki (Assay 2). Type of test: biochemical. How it is done: (§1) Experiments were therefore conducted (1) to measure the potency of inhibition of compounds of the invention against purified Pseudomonas aeruginosa LasB enzyme and also experiments were conducted (2) to measure the ability of compounds of the invention to inhibit LasB-catalysed elastin degradation. The first assay uses a commercial fluorescent synthetic peptide and purified LasB enzyme. The LasB hydrolysis kinetics are measured allowing the determination of the IC50 and Ki of the inhibitors; the second is a more physiological assay using dialysed Pseudomonas aeruginosa supernatant as source of enzyme, plus its natural substrate Elastin. It is an “end point assay” that determines the percentage of LasB inhibition by each compound for one particular time point and inhibitor concentration. Technical details are described below:
This assay uses commercially available substrate (Abz-Ala-Gly-Leu-Ala-p-Nitro-Benzyl-Amide (Ex: 340 nm, Em: 415 nm) from Peptide International) and purified LasB protein from P. aeruginosa (provided by Merck or Charles River Laboratories). It is performed to determine LasB elastase activity and assess compound inhibition in 96-well plate format. Some compounds of Formula (I) were assessed using the method of Assay 1 (described below). Other compounds of Formula (I) were assessed using the alternative but equivalent method of Assay 2 (described below).
Method: 10 to 140 ng/ml purified LasB is incubated with 250 μM Abz-Ala-Gly-Leu-Ala-p-Nitro-Benzyl-Amide in 50 mM Tris-HCl pH 7.4, 2.5 mM CaCl2), 0.01% of Triton X100 at 37° C. LasB activity (corresponding to fluorescence emission induced by substrate hydrolysis) is measured over 30 min at 37° C. with a fluorescence plate reader such as the Perkin Elmer Envision or similar. Different range of inhibitor concentrations are routinely assessed depending of inhibitor potency from 0.006 to 200 μM (Assay 1; 2-fold dilutions series) or from 0.0016 to 200 μM (Assay 2; 2-fold dilutions series) in order to determine IC50.
The equation used to calculate the Ki from IC50 is: Ki=IC50/(1+([S]/Km)) where [S]=250 μM and Km=214 μM.

The target of test [2] is T2, LasB elastase activity in dialysed supernatant from P. aeruginosa strain PA01 (Pseudomonas aeruginosa, UniProt P14756).
T2 construct: uses as source of enzyme dialysed supernatant from P. aeruginosa; endogenous in cells; host or cells: P. aeruginosa strain PA01 culture supernatant, filtered and dialysed
T2 sequence (P14756 198-498): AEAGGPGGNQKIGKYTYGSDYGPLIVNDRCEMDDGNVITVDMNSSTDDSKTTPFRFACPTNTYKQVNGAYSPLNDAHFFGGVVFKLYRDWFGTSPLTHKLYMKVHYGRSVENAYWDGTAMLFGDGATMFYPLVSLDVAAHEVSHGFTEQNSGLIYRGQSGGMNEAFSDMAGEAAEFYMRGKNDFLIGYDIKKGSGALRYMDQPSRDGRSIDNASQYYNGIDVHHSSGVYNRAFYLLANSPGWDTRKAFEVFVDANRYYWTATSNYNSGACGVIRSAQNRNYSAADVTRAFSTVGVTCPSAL
The test is described as follows: Elastin Congo Red assay to determine % inhibition (Assay 2). The test is classed as biochemical. Particulars: read-out: Elastin hydrolysis % inhibition @ 50/25 μM inhibitor concentration Assay 2. The method, then: as §1
The Elastin assay uses as source of enzyme dialysed supernatant from P. aeruginosa and the elastin congo red as substrate. The natural LasB substrate, elastin, is complexed with the congo red dye (Elastin Congo Red, ECR). The elastolysis activity from the culture supernatant will degrade elastin and release the congo red dye into the supernatant. This red dye release can be measured with a spectrophotometer. Some compounds of Formula (I) were assessed using the method of Assay 1 (described below). Other compounds of Formula (I) were assessed using the alternative but equivalent method of Assay 2 (described below).
Method (Assay 2): To determine LasB elastase activity and assess compound inhibition, an overnight culture of P. aeruginosa strain PA01 is diluted in LB medium. After reaching an OD600 nm of 0.6, this culture is diluted and incubated for additional 18-24 h in a shaking incubator. Culture supernatants are recovered by centrifugation and filtrated through a […] filter. These supernatants are dialysed (filtration molecules <20 kDa) into a 50 mM Tris-HCl pH 7.4, 2.5 mM CaCl2 solution at 4° C. under agitation for 24 h. Supernatant dialysed is then mixed volume/volume with the ECR suspension (20 mg/mL of ECR in 100 mM Tris-HCl pH 7.4 buffer supplemented with 1 mM CaCl2) supplemented with TritonX 100 (final concentration of 0.01%) in presence of DMSO (positive control) and/or different concentrations of compound (routinely […]). As a negative control, the dialysed supernatant is replaced by Tris-HCl solution (50 mM Tris-HCl pH 7.4, 2.5 mM CaCl2). The mixed reaction is then incubated overnight in a 37° C. shaking incubator. The reaction supernatant is recovered by centrifugation and the release of congo-red is measured by its absorbance at 495 nm (OD495 nm).
Percentage inhibition is determined using the following equation: ((OD495 nm value of positive control−OD495 nm value of negative control)−(OD495 nm value of treated supernatant−OD495 nm value of negative control))/(OD495 nm value of positive control−OD495 nm value of negative control)×100.

Eleven molecules from patent US11000511B2, “Chemical compounds as antibiotics” (priority 2017, dated 2021) can be followed below.

By Ki is commonly meant a measure of affinity in units of concentration, obtained from inhibition or displacement. Higher therefore signals lower affinity.

T1 sequence (P14756 198-498): as above

In test [1], `O=C(O)CC1(C(=O)NCc2nc3ccc(OCCO)cc3s2)Cc2ccccc2C1` [Example 109, 2-[2-[[6-(2-hydroxyethoxy)-1,3-benzothiazol-2-yl]methylcarbamoyl]indan-2-yl]acetic acid] registered an inhibitory constant (Ki) of less than 300 nM. In addition, the inhibition at 50 µM in test [2] was more than 60%.

`CCOc1ccc2nc(CNC(=O)C3(CC(=O)O)Cc4ccccc4C3)sc2c1` [Example 108, 2-[2-[(6-ethoxy-1,3-benzothiazol-2-yl)methylcarbamoyl]indan-2-yl]acetic acid] had a Ki in test [1] of less than 300 nM. In addition, the inhibition at 50 µM in test [2] was more than 60%.

Molecule `COc1cc2sc(CNC(=O)C3(CC(=O)O)Cc4ccccc4C3)nc2cc1OCCN(C)C` [Example 126, 2-(2-(((5-(2-(dimethylamino)ethoxy)-6-methoxybenzo[d]thiazol-2-yl)methyl)carbamoyl)-2,3-dihydro-1H-inden-2-yl)acetic acid] displayed a Ki in test [1] of less than 300 nM. The inhibition at 50 µM in test [2] is more than 60%.

`COc1cc2sc(CNC(=O)C3(CC(=O)O)Cc4ccccc4C3)nc2cc1N1CC(N(C)C)C1` [Example 122, 2-(2-(((5-(3-(dimethylamino)azetidin-1-yl)-6-methoxybenzo[d]thiazol-2-yl)methyl)carbamoyl)-2,3-dihydro-1H-inden-2-yl)acetic acid]: in test [1], the Ki was less than 300 nM. Also, the inhibition at 50 µM in test [2] is more than 60%.

In the case of `COc1cc2sc(CNC(=O)C3(CC(=O)O)Cc4cc(F)c(F)cc4C3)nc2cc1OCCC[N+](C)(C)C` [Example 125, 2-(5,6-difluoro-2-(((6-methoxy-5-(3-(trimethylammonio)propoxy)benzo[d]thiazol-2-yl)methyl)carbamoyl)-2,3-dihydro-1H-inden-2-yl)acetate], in test [1], the Ki was less than 300 nM. Besides, in test [2], the inhibition at 50 µM is more than 60%.

Regarding `O=C(O)CC1(C(=O)NCc2nc3ccccc3s2)Cc2cc(F)c(F)cc2C1` [Example 120, 2-(2-((benzo[d]thiazol-2-ylmethyl)carbamoyl)-5,6-difluoro-2,3-dihydro-1H-inden-2-yl)acetic acid], the Ki in test [1] was less than 300 nM. Further, the inhibition at 50 µM in test [2] is more than 60%.

With `COc1cc2sc(CNC(=O)C3(CC(=O)O)Cc4cc(F)c(F)cc4C3)nc2cc1OCCCN(C)C` [Example 124, 2-(2-(((5-(3-(dimethylamino)propoxy)-6-methoxybenzo[d]thiazol-2-yl)methyl)carbamoyl)-5,6-difluoro-2,3-dihydro-1H-inden-2-yl)acetic acid], the Ki in test [1] was less than 300 nM. Further, the inhibition at 50 µM in test [2] was more than 60%.

On to `O=C(O)CC1(C(=O)NCc2nc3ccc(OC(F)(F)F)cc3s2)Cc2ccccc2C1` [Example 128, 2-[2-[[6-(trifluoromethoxy)-1,3-benzothiazol-2-yl]methylcarbamoyl]indan-2-yl]acetic acid], for which, in test [1], the inhibition constant (Ki) was less than 300 nM. Also, the inhibition at 50 µM in test [2] is more than 60%.

With `COc1cc2nc(CNC(=O)C3(CC(=O)O)Cc4ccccc4C3)sc2cc1OC` [Example 114, 2-[2-[(5,6-dimethoxy-1,3-benzothiazol-2-yl)methylcarbamoyl]indan-2-yl]acetic acid], the inhibitory constant (Ki) in test [1] was less than 300 nM. Moreover, the inhibition at 50 µM in test [2] is more than 60%.

Consider `O=C(O)CC1(C(=O)NCc2nc3ccc(O)cc3s2)Cc2ccccc2C1` [Example 107, 2-[2-[(6-hydroxy-1,3-benzothiazol-2-yl)methylcarbamoyl]indan-2-yl]acetic acid], for which the inhibition constant Ki in test [1] was less than 300 nM. Further, the inhibition at 50 µM in test [2] is more than 60%.

Turning to `O=C(O)CC1(C(=O)NCc2nc3cc4c(cc3s2)OCO4)Cc2ccccc2C1` [Example 115, 2-[2-([1,3]dioxolo[4,5-f][1,3]benzothiazol-6-ylmethylcarbamoyl)indan-2-yl]acetic acid], the Ki in test [1] was less than 300 nM. Besides, the inhibition at 50 µM in test [2] is more than 60%.
